Columns and labels:
Crizotinib = compound: C[C@@H](Oc1cc(-c2cnn(C3CCNCC3)c2)cnc1N)c1c(Cl)ccc(F)c1Cl [Crizotinib]; experiment: relative viability (nuclei count vs DMSO), 5 days (fraction); higher = more cells survive
How it was run: (§1)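 Nuclei counted with MetaXpress define viability as the ratio of treated to vehicle wells, given as a median across plates. The lung cancer cell lines were in 1536-well plates, pinned with five √10-spaced library-drug doses and imaged at 4× after 5 days and Hoechst staining. Plates passed with control CV below 25% and at least one doubling.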

Olaparib = compound: O=C(c1cc(Cc2n[nH]c(=O)c3ccccc23)ccc1F)N1CCN(C(=O)C2CC2)CC1 [Olaparib]; experiment: as above
How it was run: as §1

NCI-H1793
relative viability (Crizotinib; 0.03162 µM): 0.987
relative viability (Crizotinib; 1 µM): 1.09
relative viability (Olaparib; 0.08 µM): 0.93
relative viability (Olaparib; 0.253 µM): 0.856
relative viability (Olaparib; 2.53 µM): 0.824
relative viability (Olaparib; 8 µM): 0.776
relative viability (Olaparib; 8 µM, anchor plate): 0.911
